In series [1] the test system is SU-DHL-6. Briefly: Antiproliferative activity against human SU-DHL-6 cells assessed as reduction in cell viability measured after 72 hrs by MTT assay. It is filed as functional. For orientation: Tetrazolium assays rely on reduction of a dye to a coloured formazan, in cell work by metabolically active cells.
The target of series [2] is PI3-kinase p110-delta/p85-alpha (Homo sapiens, UniProt O00329).
The species entered for series [3] is Homo sapiens.
Series [4] is filed under the species Homo sapiens. The source holds these as a separate data set.
Series [5] concerns the target Phosphatidylinositol 3-kinase regulatory subunit beta/Phosphatidylinositol 4,5-bisphosphate 3-kinase catalytic subunit beta isoform (Homo sapiens, UniProt P42338).
The species named for series [6] is Homo sapiens. This is another data set of the same source.
The target of series [7] is PI3-kinase p110-alpha/p85-alpha (Homo sapiens, UniProt P42336).
Series [8] concerns the target Phosphatidylinositol 4,5-bisphosphate 3-kinase catalytic subunit gamma isoform (Homo sapiens, UniProt P48736).
Series [9] in a line: AUC (0 to t) in Sprague-Dawley rat at 5 mg/kg, po by UHPLC-LC/MS analysis. Conditions: in vivo. More on the design: dose 5 mg/kg. It is filed as ADME, organism-based.
The nature of series [10]: AUC (0 to t) in Sprague-Dawley rat at 5 mg/kg, iv by UHPLC-LC/MS analysis. More on the design: dose 5 mg/kg. Conditions: in vivo. It counts as ADME, organism-based.
Series [11] can be described thus: Elimination half life in Sprague-Dawley rat at 5 mg/kg, iv by UHPLC-LC/MS analysis. The conditions noted are these: in vivo, read-out: beta t1/2 (converted). It is filed as ADME, organism-based.
Series [12] deals with SU-DHL-6. Nature of the series: Inhibition of PI3K in human SU-DHL-6 cells assessed as reduction in S6K1 phosphorylation at Thr389 residues after 2 hrs by Western blot analysis. It counts as cell-based. (In western blotting, separated proteins are transferred to a membrane and probed.)
Series [13] is described as follows: Clearance in Sprague-Dawley rat at 5 mg/kg, […] by UHPLC-LC/MS analysis. It counts as ADME, organism-based. The conditions noted are these: in vivo.
In series [14] the test system is SU-DHL-6. Briefly: Inhibition of PI3K in human SU-DHL-6 cells assessed as reduction in AKT phosphorylation at Ser473 residues after 2 hrs by Western blot analysis. It counts as cell-based.
The nature of series [15]: Oral bioavailability in Sprague-Dawley rat at 5 mg/kg by UHPLC-LC/MS analysis. It is filed as ADME, organism-based. The conditions noted are these: in vivo.
Series [16] can be described thus: Volume of distribution at steady state in Sprague-Dawley rat at 5 mg/kg, iv or po by UHPLC-LC/MS analysis. It is filed as ADME, organism-based. The conditions noted are these: in vivo, read-out: Vdss.
Series [17] in a line: Elimination half life in Sprague-Dawley rat at 5 mg/kg, po by UHPLC-LC/MS analysis. It is filed as ADME, organism-based. The conditions noted are these: in vivo, read-out: beta t1/2 (converted).

Where only a bound is given, the exact number is not on record here.

The results in this text go back to ChEMBL document CHEMBL4680196, “Structurally novel PI3Kδ/γ dual inhibitors characterized by a seven-membered spirocyclic spacer: The SARs investigation and PK evaluation” (Eur J Med Chem, 2020).

Chain of PI3-kinase p110-delta/p85-alpha (P27986 whole entry): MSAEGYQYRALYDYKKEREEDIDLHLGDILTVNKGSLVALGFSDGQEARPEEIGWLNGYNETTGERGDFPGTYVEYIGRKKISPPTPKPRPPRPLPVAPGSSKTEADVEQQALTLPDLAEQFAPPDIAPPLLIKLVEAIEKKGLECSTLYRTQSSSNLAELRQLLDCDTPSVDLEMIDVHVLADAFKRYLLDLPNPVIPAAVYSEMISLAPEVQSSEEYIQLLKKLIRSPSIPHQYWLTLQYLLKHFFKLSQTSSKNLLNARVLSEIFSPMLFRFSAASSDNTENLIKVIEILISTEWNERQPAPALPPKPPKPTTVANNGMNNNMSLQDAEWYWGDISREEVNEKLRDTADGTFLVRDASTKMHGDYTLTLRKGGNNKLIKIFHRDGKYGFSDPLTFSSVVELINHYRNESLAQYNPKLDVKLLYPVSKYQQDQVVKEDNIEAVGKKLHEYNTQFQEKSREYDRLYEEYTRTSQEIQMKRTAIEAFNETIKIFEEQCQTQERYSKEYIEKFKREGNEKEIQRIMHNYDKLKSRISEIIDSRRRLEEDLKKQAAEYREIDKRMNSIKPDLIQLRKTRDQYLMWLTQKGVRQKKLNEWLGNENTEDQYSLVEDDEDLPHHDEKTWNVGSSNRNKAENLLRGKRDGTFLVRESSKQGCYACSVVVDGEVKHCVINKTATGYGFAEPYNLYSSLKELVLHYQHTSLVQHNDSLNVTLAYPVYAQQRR
Chain of PI3-kinase p110-delta/p85-alpha (O00329 whole entry): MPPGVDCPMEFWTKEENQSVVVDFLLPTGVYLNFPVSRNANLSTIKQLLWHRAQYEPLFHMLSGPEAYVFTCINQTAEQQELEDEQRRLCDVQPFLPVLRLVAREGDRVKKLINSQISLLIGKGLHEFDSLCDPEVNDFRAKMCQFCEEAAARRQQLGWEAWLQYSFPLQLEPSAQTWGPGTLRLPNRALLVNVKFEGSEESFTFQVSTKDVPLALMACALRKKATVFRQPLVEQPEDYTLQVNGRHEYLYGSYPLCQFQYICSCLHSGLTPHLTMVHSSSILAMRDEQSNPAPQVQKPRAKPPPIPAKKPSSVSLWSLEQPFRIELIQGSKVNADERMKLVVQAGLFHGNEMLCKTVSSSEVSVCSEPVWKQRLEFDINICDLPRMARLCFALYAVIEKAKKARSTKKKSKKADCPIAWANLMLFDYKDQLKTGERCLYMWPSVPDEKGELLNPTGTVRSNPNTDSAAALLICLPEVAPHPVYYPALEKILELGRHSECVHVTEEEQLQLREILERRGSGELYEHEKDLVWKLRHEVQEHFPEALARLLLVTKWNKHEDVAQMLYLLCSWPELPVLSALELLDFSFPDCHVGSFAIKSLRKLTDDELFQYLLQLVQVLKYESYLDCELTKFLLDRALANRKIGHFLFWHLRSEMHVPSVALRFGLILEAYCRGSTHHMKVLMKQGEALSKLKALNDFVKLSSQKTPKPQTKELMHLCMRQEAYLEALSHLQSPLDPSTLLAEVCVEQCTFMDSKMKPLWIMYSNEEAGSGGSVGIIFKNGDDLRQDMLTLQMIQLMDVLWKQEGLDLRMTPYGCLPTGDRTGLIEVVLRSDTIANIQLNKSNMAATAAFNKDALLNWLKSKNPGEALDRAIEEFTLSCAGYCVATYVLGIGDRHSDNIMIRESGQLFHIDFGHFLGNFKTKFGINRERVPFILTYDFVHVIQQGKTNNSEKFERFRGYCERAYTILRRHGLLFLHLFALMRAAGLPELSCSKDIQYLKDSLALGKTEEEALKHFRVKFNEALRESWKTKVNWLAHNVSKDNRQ
Chain of Phosphatidylinositol 3-kinase regulatory subunit beta/Phosphatidylinositol 4,5-bisphosphate 3-kinase catalytic subunit beta isoform (P42338 whole entry, canonical isoform): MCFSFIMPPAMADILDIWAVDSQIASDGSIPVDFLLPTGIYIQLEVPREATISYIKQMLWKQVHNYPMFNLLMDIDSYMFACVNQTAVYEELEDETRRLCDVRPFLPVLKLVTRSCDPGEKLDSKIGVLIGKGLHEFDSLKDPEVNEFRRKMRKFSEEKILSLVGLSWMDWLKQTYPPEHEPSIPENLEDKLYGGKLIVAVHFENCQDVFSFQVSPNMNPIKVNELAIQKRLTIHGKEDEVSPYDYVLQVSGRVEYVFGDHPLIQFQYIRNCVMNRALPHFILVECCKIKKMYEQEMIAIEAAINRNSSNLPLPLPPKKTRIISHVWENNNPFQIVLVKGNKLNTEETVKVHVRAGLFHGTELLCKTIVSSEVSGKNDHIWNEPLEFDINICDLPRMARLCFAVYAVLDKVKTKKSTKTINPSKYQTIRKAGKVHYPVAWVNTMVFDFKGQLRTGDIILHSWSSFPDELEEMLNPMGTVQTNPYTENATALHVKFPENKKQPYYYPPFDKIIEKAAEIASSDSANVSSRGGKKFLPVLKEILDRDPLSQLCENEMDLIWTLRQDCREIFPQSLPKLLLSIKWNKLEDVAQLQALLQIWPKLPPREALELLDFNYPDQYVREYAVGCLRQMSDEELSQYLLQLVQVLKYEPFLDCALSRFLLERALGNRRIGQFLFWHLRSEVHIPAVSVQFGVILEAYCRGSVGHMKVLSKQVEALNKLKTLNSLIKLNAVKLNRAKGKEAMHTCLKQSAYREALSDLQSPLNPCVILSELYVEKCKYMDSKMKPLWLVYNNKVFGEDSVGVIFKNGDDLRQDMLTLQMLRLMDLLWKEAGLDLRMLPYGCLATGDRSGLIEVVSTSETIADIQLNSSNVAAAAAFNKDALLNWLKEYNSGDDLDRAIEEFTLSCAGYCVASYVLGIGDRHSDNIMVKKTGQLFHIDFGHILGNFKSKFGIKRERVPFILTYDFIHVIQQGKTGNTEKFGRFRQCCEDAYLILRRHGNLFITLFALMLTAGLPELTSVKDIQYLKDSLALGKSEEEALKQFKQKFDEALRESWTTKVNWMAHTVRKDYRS
Chain of Phosphatidylinositol 3-kinase regulatory subunit beta/Phosphatidylinositol 4,5-bisphosphate 3-kinase catalytic subunit beta isoform (O00459 whole entry, further chain, canonical isoform): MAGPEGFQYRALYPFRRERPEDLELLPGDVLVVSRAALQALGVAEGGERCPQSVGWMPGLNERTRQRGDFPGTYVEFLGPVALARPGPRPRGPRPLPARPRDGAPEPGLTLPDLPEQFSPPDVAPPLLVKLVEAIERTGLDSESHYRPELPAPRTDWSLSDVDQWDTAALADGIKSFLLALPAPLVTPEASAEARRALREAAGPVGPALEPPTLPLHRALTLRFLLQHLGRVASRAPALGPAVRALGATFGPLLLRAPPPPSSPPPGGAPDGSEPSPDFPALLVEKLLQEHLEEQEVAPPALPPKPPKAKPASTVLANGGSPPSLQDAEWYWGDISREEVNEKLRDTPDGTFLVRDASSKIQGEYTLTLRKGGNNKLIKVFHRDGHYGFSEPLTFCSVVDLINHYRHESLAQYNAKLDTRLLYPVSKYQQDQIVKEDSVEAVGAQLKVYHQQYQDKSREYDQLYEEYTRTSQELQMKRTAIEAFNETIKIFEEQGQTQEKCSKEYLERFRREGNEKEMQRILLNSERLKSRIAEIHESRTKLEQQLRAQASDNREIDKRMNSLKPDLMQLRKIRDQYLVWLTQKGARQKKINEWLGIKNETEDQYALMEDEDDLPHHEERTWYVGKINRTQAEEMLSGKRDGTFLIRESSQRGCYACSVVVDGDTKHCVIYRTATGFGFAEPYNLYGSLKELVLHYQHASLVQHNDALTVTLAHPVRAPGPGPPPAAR
Chain of Phosphatidylinositol 4,5-bisphosphate 3-kinase catalytic subunit gamma isoform (P48736 whole entry, canonical isoform): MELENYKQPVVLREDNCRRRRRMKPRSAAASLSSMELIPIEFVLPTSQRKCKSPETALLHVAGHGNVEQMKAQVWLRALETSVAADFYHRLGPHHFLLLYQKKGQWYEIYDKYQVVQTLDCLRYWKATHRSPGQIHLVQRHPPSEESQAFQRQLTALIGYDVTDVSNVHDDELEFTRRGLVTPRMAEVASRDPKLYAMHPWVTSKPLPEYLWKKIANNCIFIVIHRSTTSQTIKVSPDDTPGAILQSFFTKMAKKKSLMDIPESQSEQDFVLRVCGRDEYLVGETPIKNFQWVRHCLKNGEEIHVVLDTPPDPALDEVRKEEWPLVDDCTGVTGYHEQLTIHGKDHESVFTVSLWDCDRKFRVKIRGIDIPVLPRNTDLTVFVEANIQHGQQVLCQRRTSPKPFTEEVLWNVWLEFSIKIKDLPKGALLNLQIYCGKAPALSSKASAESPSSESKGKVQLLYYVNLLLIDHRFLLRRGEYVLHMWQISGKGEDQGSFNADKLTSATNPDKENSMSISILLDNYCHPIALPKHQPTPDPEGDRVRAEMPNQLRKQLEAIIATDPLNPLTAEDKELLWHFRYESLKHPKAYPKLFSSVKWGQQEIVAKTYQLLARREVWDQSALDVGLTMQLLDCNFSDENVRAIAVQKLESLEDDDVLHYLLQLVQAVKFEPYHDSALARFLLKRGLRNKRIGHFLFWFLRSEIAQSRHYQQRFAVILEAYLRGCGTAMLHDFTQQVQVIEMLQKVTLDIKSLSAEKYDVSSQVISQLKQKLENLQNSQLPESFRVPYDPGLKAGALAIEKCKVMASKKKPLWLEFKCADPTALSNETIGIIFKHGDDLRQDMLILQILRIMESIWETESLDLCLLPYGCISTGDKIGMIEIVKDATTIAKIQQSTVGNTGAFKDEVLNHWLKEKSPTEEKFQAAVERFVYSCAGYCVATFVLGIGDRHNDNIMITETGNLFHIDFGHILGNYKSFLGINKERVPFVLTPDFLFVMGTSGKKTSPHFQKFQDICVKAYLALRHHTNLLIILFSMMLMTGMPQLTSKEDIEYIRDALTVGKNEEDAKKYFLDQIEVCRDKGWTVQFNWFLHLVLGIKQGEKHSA

As a reminder, the GI50 is the concentration at which growth is held to half of that of the control. As a reminder, the IC50 is the midpoint of a concentration-inhibition curve. Turning to `Cc1cccc2nc([C@@H]3CC4(CC4)CN3c3ncnc4[nH]cnc34)n(-c3ccccc3)c(=O)c12`, the GI50 in series [1] was found to be 107 nM. The IC50 in series [2] was determined as 16 nM.
With `O=c1c2c(Cl)cccc2nc([C@@H]2CC3(CC3)CN2c2ncnc3[nH]cnc23)n1-c1ccccc1`, the Ratio IC50 in series [3] is 9; in series [4] it was above 385; in [6] it was 203. Besides, the IC50 in series [5] was 2640 nM; in [7], above 5000 nM; in [8], 113 nM; in series [2] it was 13 nM. Further, in [1], the GI50 amounted to 601 nM.
Usually AUC(0-t) stands for the area under the concentration-time curve up to a stated or last time point. A lower AUC(0-t) goes with low exposure. Broadly, the CL/F is clearance divided by bioavailability, as obtained after extravascular dosing. As a reminder, the bioavailability is dose-corrected exposure relative to a reference, in per cent. In the case of `N#Cc1c(N)nc(N)nc1N1CC2(CC2)C[C@H]1c1nc2cccc(Cl)c2c(=O)n1-c1ccccc1`, the values for the Ratio IC50 in series [3], in series [4] and in [6] were 4, 221 and 174, respectively. Further, the AUC(0-t) in series [9] stood at 4880 ng·h/mL; in [10], 5580 ng·h/mL. The results for the half-life in [11] and in series [17] were 3 h and 14.3 h, respectively. For the same compound, the inhibition result in series [12] and in [14] was “Dose-dependent effect” in each case. Besides, the concentration for half-maximal inhibition (IC50) is 174 nM in series [5], 221 nM in [7], 4.3 nM in [8] and 1 nM in [2]. In addition, in series [1], the GI50 was 33 nM. Further, the CL/F in [13] was 15 mL/min/kg. For the same compound, the bioavailability in [15] stood at 87.5%. Moreover, the Vd in series [16] is 3.9 L/kg.
Take `N#Cc1c(N)ncnc1N1CC2(CC2)C[C@H]1c1nc2cccc(Cl)c2c(=O)n1-c1ccccc1`: in [1], the GI50 was 3420 nM. The IC50 in [2] turned out to be 3.7 nM.
With `N#Cc1c(N)ncnc1N1CC2(CC2)C[C@H]1c1nc2ccc(F)cc2c(=O)n1-c1ccccc1`, the GI50 in [1] is 945 nM. Further, it took 9.6 nM to reach half-maximal inhibition in [2] (IC50).
In the case of `O=c1c2c(F)cccc2nc([C@@H]2CC3(CC3)CN2c2ncnc3[nH]cnc23)n1C1CCCCC1`, in [2], the IC50 worked out at 444 nM.
As for `N#Cc1c(N)nc(N)nc1N1CC2(CC2)C[C@H]1c1nc2cccc(F)c2c(=O)n1-c1ccccc1`, the GI50 in series [1] is 53 nM. The compound also gave a 50% inhibitory concentration (IC50) in series [2] of 5.4 nM.
Take `Cc1nc(N)nc(N2CC3(CC3)C[C@H]2c2nc3cccc(Cl)c3c(=O)n2-c2ccccc2)c1C#N`: in [1], the GI50 amounted to 716 nM. The IC50 in [2] worked out at 9.6 nM.
Turning to `N#Cc1c(N)ncnc1N1CC2(CC2)C[C@H]1c1nc2cccc(F)c2c(=O)n1-c1ccccc1`, the GI50 in [1] worked out at 867 nM. Also, the IC50 in [2] amounted to 15 nM.
Take `O=c1c2c(Cl)cccc2nc([C@@H]2CC3(CC3)CN2c2nc(F)nc3[nH]cnc23)n1-c1ccccc1`: the GI50 in series [1] is 2810 nM. The same compound returned an IC50 in series [2] of 38 nM.
Regarding `O=c1c2c(F)cccc2nc([C@@H]2CC3(CC3)CN2c2ncnc3[nH]cnc23)n1C1CCCC1`, in [2], inhibition was half-maximal at 396 nM (IC50).
With `O=c1c2c(Cl)cccc2nc([C@@H]2CC3(CC3)CN2c2nc(Cl)nc3[nH]cnc23)n1-c1ccccc1`, inhibition in series [2] was half-maximal at 406 nM (IC50).
Consider `O=c1c2cc(F)ccc2nc([C@@H]2CC3(CC3)CN2c2ncnc3[nH]cnc23)n1-c1ccccc1`, for which, in [1], the GI50 came out at 937 nM. This compound also returned an IC50 in series [2] of 48 nM.
Take `Cc1nc(N)nc(N2CC3(CC3)C[C@H]2c2nc3cccc(F)c3c(=O)n2-c2ccccc2)c1C#N`: the GI50 in series [1] was 1040 nM. Also, the midpoint of inhibition in [2], the IC50, lay at 9.4 nM.
For `CC[C@H](Nc1ncnc2[nH]cnc12)c1nc2cccc(F)c2c(=O)n1-c1ccccc1` [IDELALISIB], the concentration for 50% growth inhibition (GI50) in series [1] is 34 nM.
In the case of `O=c1c2c(F)cccc2nc([C@@H]2CC3(CC3)CN2c2ncnc3[nH]cnc23)n1-c1ccccc1`, the GI50 in series [1] was found to be 813 nM. Further, the IC50 in [2] stood at 43 nM.
On to `O=c1c2c(F)cccc2nc([C@@H]2CC3(CC3)CN2c2ncnc3[nH]cnc23)n1Cc1ccccc1`, for which 813 nM corresponded to half-maximal inhibition in series [2] (IC50).
